Tests used:
[1] = tested on: subclinical menstrually related symptoms; settings: 50 mg lozenges, ½ to 2 once to three times daily
[2] = tested on: symptoms of menstrual related pain and emotion; assay: Evaluation of sublingual ketamine lozenges/ODTs in women, Daily Record of Severity of Problems
[3] = Aun, Br. J. Anaesthesia 83: 29-41 (1999); cited from earlier work

With `N[C@@]1(c2ccccc2Cl)CCC[C@@H](O)C1=O` the mental clarity [1] was “can experience an increase in mental clarity”.
With `CNC1(c2ccccc2Cl)CCCCC1=O` (racemic) [ketamine] the “subjects reporting sufficient improvement with a 25 mg dose” value ([2]; 25 mg dose, 9 women) was “Three subjects reported sufficient improvement”, the interference with functionality ([2]; 50 mg dose, 9 women) was “One subject reported that a 50 mg dose interfered with their functionality” and the “relief of PMS symptoms at 100 mg dose” value ([2]; 100 mg dose, preferred by three subjects) was “substantial relief of PMS symptoms”. For the same molecule, the negative after effects ([2]; 9 women) was “no reports of negative after effects”, the “subjects reporting emotional symptom improvement during the symptomatic days of their cycles” value ([2]; 9 women, 25-100 mg ketamine racemate sublingual lozenge/ODT) was 9 subjects and the duration of effect ([2]; all subjects, beyond the time of administration) was “lasting for days, or more, beyond the time of ketamine administration”. The “effect on breast tenderness and cramping” value ([2]; physical symptoms, 9 women) was “positively affected in three subjects, but not in six others”, the improvement of headaches ([2]; physical symptoms, 9 women) was “Two subjects reported improvement of headaches” and the “duration of anesthetic effects” value ([2]; sublingual, first hour the intense portion) was “up to 2 hours”. For the same molecule, the “duration of relief of physical symptoms” value ([2]; two subjects, doses of 50 mg and 100 mg, until menses began) was 5 days.
For `CN[C@]1(c2ccccc2Cl)CCCCC1=O` [S-(+)-ketamine], the “potency for use in anesthesia relative to R-(−)-ketamine” value [3] is given as “twice as potent as R-(−)-ketamine”.
For `NC1(c2ccccc2Cl)CCCCC1=O` (stereo not shown) [norketamine], the “potency for use in anesthesia relative to ketamine” value [3] is given as “one third the potency of ketamine”.

— patent US20210113493A1, “KETAMINE FOR THE TREATMENT OF M[…] SYMPTOMS” (priority 2016, published 2021)
